Reference: ChEMBL document CHEMBL3885861, “Open TG-GATES”

Species on record: Rattus norvegicus
Assay: Open TG-GATES - Regimen: Daily Repeat
Assay type: toxicity, organism-based, Sprague-Dawley
Set-up: regimen Daily Repeat, gender Male, age 6 weeks
Details: in vivo, po, 30 mg/kg, route gavage, dose level Low; for APTT / Bas / Eos / Fbg / Hb / Ht / Lym / MCH / MCHC / MCV / Mono / Neu / PT / Plat / RBC / Ret / WBC: tissue Blood; for KIDNEY_L / KIDNEY_R / KIDNEY_TOTAL: tissue Kidney; for LIVER: tissue Liver; for A/G / ALP / ALT / AST / BUN / CRE / Ca / Cl / DBIL / GLC / IP / K / LDH / Na / PL / RALB / TBIL / TC / TG / TP / gamma-GTP: tissue Plasma

Cc1cccc(Nc2ccccc2C(=O)O)c1C [MEFENAMIC ACID]
TERMINAL_BW (72 h, time 3 day): 232.8 g
APTT (72 h, time 3 day): 19.8 s
Bas (72 h, time 3 day): 0%
Eos (72 h, time 3 day): 1%
Fbg (72 h, time 3 day): 221.8 mg/dL
Hb (72 h, time 3 day): 13.4 g/dL
Ht (72 h, time 3 day): 38.3%
Lym (72 h, time 3 day): 79.6%
MCH (72 h, time 3 day): 21.4 pg
MCHC (72 h, time 3 day): 35%
MCV (72 h, time 3 day): 61.1 fL
Mono (72 h, time 3 day): 2.4%
Neu (72 h, time 3 day): 15.4%
PT (72 h, time 3 day): 11.9 s
Plat (72 h, time 3 day): 117.6 x10_4/uL
RBC (72 h, time 3 day): 627.4 x10_4/ul
Ret (72 h, time 3 day): 5.6%
WBC (72 h, time 3 day): 94.5 x10_2/uL
KIDNEY_L (72 h, time 3 day): 1 g
KIDNEY_R (72 h, time 3 day): 1 g
KIDNEY_TOTAL (72 h, time 3 day): 2 g
LIVER (72 h, time 3 day): 10.6 g
A/G (72 h, time 3 day): 1.6
ALP (72 h, time 3 day): 1154.4 IU/L
ALT (72 h, time 3 day): 36.2 IU/L
AST (72 h, time 3 day): 66.2 IU/L
BUN (72 h, time 3 day): 14.6 mg/dL
CRE (72 h, time 3 day): 0.4 mg/dL
Ca (72 h, time 3 day): 10.8 mg/dL
Cl (72 h, time 3 day): 102 meq/L
DBIL (72 h, time 3 day): 0.09 mg/dL
GLC (72 h, time 3 day): 190.6 mg/dL
IP (72 h, time 3 day): 7.8 mg/dL
K (72 h, time 3 day): 4.2 meq/L
LDH (72 h, time 3 day): 171.8 IU/L
Na (72 h, time 3 day): 140 meq/L
PL (72 h, time 3 day): 164.6 mg/dL
RALB (72 h, time 3 day): 3.5 g/dL
TBIL (72 h, time 3 day): 0.2 mg/dL
TC (72 h, time 3 day): 91 mg/dL
TG (72 h, time 3 day): 94.4 mg/dL
TP (72 h, time 3 day): 5.6 g/dL
gamma-GTP (72 h, time 3 day): 0.8 IU/L
TERMINAL_BW ([…], time 7 day): 268.5 g
TERMINAL_BW ([…], time 14 day): 312.8 g
TERMINAL_BW ([…], time 28 day): 397.4 g
APTT ([…], time 7 day): 19.2 s
Bas ([…], time 7 day): 0%
Eos ([…], time 7 day): 1.4%
Fbg ([…], time 7 day): 237 mg/dL
Hb ([…], time 7 day): 14 g/dL
Ht ([…], time 7 day): 39%
Lym ([…], time 7 day): 80.4%
MCH ([…], time 7 day): 22.2 pg
MCHC ([…], time 7 day): 35.8%
MCV ([…], time 7 day): 61.9 fL
Mono ([…], time 7 day): 2%
Neu ([…], time 7 day): 15%
PT ([…], time 7 day): 11.8 s
Plat ([…], time 7 day): 125.5 x10_4/uL
RBC ([…], time 7 day): 629.6 x10_4/ul
Ret ([…], time 7 day): 5.4%
WBC ([…], time 7 day): 98.6 x10_2/uL
APTT ([…], time 14 day): 19.6 s
Bas ([…], time 14 day): 0%
Eos ([…], time 14 day): 1%
Fbg ([…], time 14 day): 224.2 mg/dL
Hb ([…], time 14 day): 14.5 g/dL
Ht ([…], time 14 day): 40.6%
Lym ([…], time 14 day): 80%
MCH ([…], time 14 day): 21.5 pg
MCHC ([…], time 14 day): 35.7%
MCV ([…], time 14 day): 60.3 fL
Mono ([…], time 14 day): 2.4%
Neu ([…], time 14 day): 15.4%
PT ([…], time 14 day): 12.1 s
Plat ([…], time 14 day): 117 x10_4/uL
RBC ([…], time 14 day): 673.6 x10_4/ul
Ret ([…], time 14 day): 4%
WBC ([…], time 14 day): 93.1 x10_2/uL
APTT ([…], time 28 day): 18.7 s
Bas ([…], time 28 day): 0%
Eos ([…], time 28 day): 1.2%
Fbg ([…], time 28 day): 248.6 mg/dL
Hb ([…], time 28 day): 15.6 g/dL
Ht ([…], time 28 day): 43.9%
Lym ([…], time 28 day): 81.8%
MCH ([…], time 28 day): 20.4 pg
MCHC ([…], time 28 day): 35.5%
MCV ([…], time 28 day): 57.5 fL
Mono ([…], time 28 day): 2.2%
Neu ([…], time 28 day): 13%
PT ([…], time 28 day): 12.1 s
Plat ([…], time 28 day): 107.9 x10_4/uL
RBC ([…], time 28 day): 764.2 x10_4/ul
Ret ([…], time 28 day): 2.5%
WBC ([…], time 28 day): 93.1 x10_2/uL
KIDNEY_L ([…], time 7 day): 1.1 g
KIDNEY_R ([…], time 7 day): 1.1 g
KIDNEY_TOTAL ([…], time 7 day): 2.2 g
KIDNEY_L ([…], time 14 day): 1.2 g
KIDNEY_R ([…], time 14 day): 1.2 g
KIDNEY_TOTAL ([…], time 14 day): 2.4 g
KIDNEY_L ([…], time 28 day): 1.4 g
KIDNEY_R ([…], time 28 day): 1.4 g
KIDNEY_TOTAL ([…], time 28 day): 2.8 g
LIVER ([…], time 7 day): 12.3 g
LIVER ([…], time 14 day): 13.7 g
LIVER ([…], time 28 day): 16.1 g
A/G ([…], time 7 day): 1.6
ALP ([…], time 7 day): 1054 IU/L
ALT ([…], time 7 day): 38.2 IU/L
AST ([…], time 7 day): 69.8 IU/L
BUN ([…], time 7 day): 15 mg/dL
CRE ([…], time 7 day): 0.4 mg/dL
Ca ([…], time 7 day): 10.6 mg/dL
Cl ([…], time 7 day): 102.8 meq/L
DBIL ([…], time 7 day): 0.098 mg/dL
GLC ([…], time 7 day): 222.6 mg/dL
IP ([…], time 7 day): 7.2 mg/dL
K ([…], time 7 day): 3.7 meq/L
LDH ([…], time 7 day): 204.4 IU/L
Na ([…], time 7 day): 140.2 meq/L
PL ([…], time 7 day): 152.4 mg/dL
RALB ([…], time 7 day): 3.5 g/dL
TBIL ([…], time 7 day): 0.2 mg/dL
TC ([…], time 7 day): 75.8 mg/dL
TG ([…], time 7 day): 114.2 mg/dL
TP ([…], time 7 day): 5.7 g/dL
gamma-GTP ([…], time 7 day): 0.8 IU/L
A/G ([…], time 14 day): 1.4
ALP ([…], time 14 day): 881.8 IU/L
ALT ([…], time 14 day): 33.4 IU/L
AST ([…], time 14 day): 57.8 IU/L
BUN ([…], time 14 day): 16 mg/dL
CRE ([…], time 14 day): 0.4 mg/dL
Ca ([…], time 14 day): 10.6 mg/dL
Cl ([…], time 14 day): 103.4 meq/L
DBIL ([…], time 14 day): 0.098 mg/dL
GLC ([…], time 14 day): 205.2 mg/dL
IP ([…], time 14 day): 7.1 mg/dL
K ([…], time 14 day): 3.9 meq/L
LDH ([…], time 14 day): 152.4 IU/L
Na ([…], time 14 day): 140.8 meq/L
PL ([…], time 14 day): 151.4 mg/dL
RALB ([…], time 14 day): 3.3 g/dL
TBIL ([…], time 14 day): 0.2 mg/dL
TC ([…], time 14 day): 74.4 mg/dL
TG ([…], time 14 day): 125 mg/dL
TP ([…], time 14 day): 5.7 g/dL
gamma-GTP ([…], time 14 day): 1 IU/L
A/G ([…], time 28 day): 1.4
ALP ([…], time 28 day): 696 IU/L
ALT ([…], time 28 day): 32.8 IU/L
AST ([…], time 28 day): 57.8 IU/L
BUN ([…], time 28 day): 17.8 mg/dL
CRE ([…], time 28 day): 0.5 mg/dL
Ca ([…], time 28 day): 10.5 mg/dL
Cl ([…], time 28 day): 103.8 meq/L
DBIL ([…], time 28 day): 0.082 mg/dL
GLC ([…], time 28 day): 227 mg/dL
IP ([…], time 28 day): 6.6 mg/dL
K ([…], time 28 day): 3.5 meq/L
LDH ([…], time 28 day): 103.4 IU/L
Na ([…], time 28 day): 141.2 meq/L
PL ([…], time 28 day): 146.2 mg/dL
RALB ([…], time 28 day): 3.5 g/dL
TBIL ([…], time 28 day): 0.1 mg/dL
TC ([…], time 28 day): 78.2 mg/dL
TG ([…], time 28 day): 97 mg/dL
TP ([…], time 28 day): 6.1 g/dL
gamma-GTP ([…], time 28 day): 1.2 IU/L
